Assay results published in the supplement of paper PMC11061612.

How the values were obtained:
Assay in all cases: combination Emax (second highest fraction inhibited in the dose matrix, 72 h); higher = more inhibition; extreme values may be limits of the assay
[1] = test system: CAL-78 (Chondrosarcoma)
In short: (§1)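 Cell lines grown in DMEM/F12 or RPMI with 10% FBS were plated in 1536-well plates and held 24 hours at 37°C, 5% CO2 before 72 hours of exposure to two-drug dose matrices, with DMSO typically at 0.2%. CellTiter-Glo 2.0 luminescence gave viability, which was converted to inhibition. Vehicle wells were set to 0 and blank wells to 1. Combination Emax is the second-highest inhibition in the matrix, and Bliss excess is the observed combination effect minus the expected EA + EB − EA·EB, where EA and EB are the single-agent effects.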

[2] = test system: CFPAC-1 (Pancreatic Carcinoma)
In short: as §1

[3] = test system: DOV13 (Ovarian Carcinoma)
In short: as §1

[4] = test system: DSH1 (Bladder Carcinoma)
In short: as §1

[5] = test system: HCC2157 (Breast Carcinoma)
In short: as §1

[6] = test system: HPAC (Pancreatic Carcinoma)
In short: as §1

[7] = test system: IGR-1 (Melanoma)
In short: as §1

[8] = test system: IHH-4 (Thyroid Gland Carcinoma)
In short: as §1

[9] = test system: KARPAS-1106P (B-Cell Non-Hodgkin's Lymphoma)
In short: as §1

[10] = test system: KARPAS-620 (Plasma Cell Myeloma)
In short: as §1

[11] = test system: KM-H2 (Hodgkin's Lymphoma)
In short: as §1

[12] = test system: MDA-MB-157 (Breast Carcinoma)
In short: as §1

[13] = test system: MDA-MB-231 (Breast Carcinoma)
In short: as §1

[14] = test system: NCI-H1299 (Non-Small Cell Lung Carcinoma)
In short: as §1

[15] = test system: SK-N-FI (Neuroblastoma)
In short: as §1

[16] = test system: SN12C (Kidney Carcinoma)
In short: as §1

[17] = test system: SNU-C5 (Colorectal Carcinoma)
In short: as §1

[18] = test system: SW1990 (Pancreatic Carcinoma)
In short: as §1

[19] = test system: SW756 (Cervical Carcinoma)
In short: as §1

[20] = test system: SW780 (Bladder Carcinoma)
In short: as §1

SMILES | combination Emax [11] | combination Emax [1] | combination Emax [2] | combination Emax [3] | combination Emax [4] | combination Emax [5] | combination Emax [6] | combination Emax [7] | combination Emax [8] | combination Emax [9] | combination Emax [10] | combination Emax [12] | combination Emax [13] | combination Emax [14] | combination Emax [15] | combination Emax [16] | combination Emax [17] | combination Emax [18] | combination Emax [19] | combination Emax [20]
CN(C)CCCOc1ccc(-c2ccc3ncc4c(c3c2)n(C2CCOCC2)c(=O)n4C)cn1 [AZD0156] + C=CCn1c(=O)c2cnc(Nc3ccc(N4CCN(C)CC4)cc3)nc2n1-c1cccc(C(C)(C)O)n1 [AZD1775] (first compound max 1 µM, partner max 1 µM) | 0.953 | 0.428 | 0.473 | 0.814 | 0.421 | 0.832 | 0.67 | 0.223 | 0.821 | 0.874 | 0.511 | 0.673 | 0.374 | 0.742 | 0.722 | 0.242 | 0.583 | 0.483 | 0.379 | 0.124
CN(CCO)CC[C@H](CSc1ccccc1)Nc1ccc(S(=O)(=O)NC(=O)c2ccc(N3CCC([C@@H](O)c4ccccc4-c4ccc(Cl)cc4)CC3)cc2)cc1S(=O)(=O)C(F)(F)F [AZD4320] + C[C@@H]1COCCN1C2=NC(=NC(=C2)C3(CC3)[S@](=N)(=O)C)C4=C5C=CNC5=NC=C4 [AZD6738] (first compound max 1 µM, 7x7, partner max 10 µM) | 0.909 | 0.861 | 0.724 | 0.974 | 0.94 | 0.979 | 0.897 | 0.969 | 0.769 | 0.849 | 1 | 0.94 | 0.849 |  | 0.765 | 0.328 | 0.854 | 0.845 | 0.381 | 0.506
CN(CCO)CC[C@H](CSc1ccccc1)Nc1ccc(S(=O)(=O)NC(=O)c2ccc(N3CCC([C@@H](O)c4ccccc4-c4ccc(Cl)cc4)CC3)cc2)cc1S(=O)(=O)C(F)(F)F [AZD4320] + C[C@@H](Nc1cc(F)cc(F)c1)c1cc(C(=O)N(C)C)cc2c(=O)cc(N3CCOCC3)oc12 [AZD8186] (first compound max 1 µM, 7x7, partner max 3 µM) |  | 0.7 | 0.424 | 0.916 | 0.404 | 0.978 | 0.562 | 0.901 | 0.516 | 0.951 | 1 | 0.349 | 0.808 | 0.297 | 0.395 | 0.331 | 0.399 | 0.388 | 0.373 | 0.742

Now from value to compound, other results behind:

combination Emax [11] | SMILES | combination Emax [1] | combination Emax [2] | combination Emax [3] | combination Emax [4] | combination Emax [5] | combination Emax [6] | combination Emax [7] | combination Emax [8] | combination Emax [9] | combination Emax [10] | combination Emax [12] | combination Emax [13] | combination Emax [14] | combination Emax [15] | combination Emax [16] | combination Emax [17] | combination Emax [18] | combination Emax [19] | combination Emax [20]
0.327 | CN(C)CCCOc1ccc(-c2ccc3ncc4c(c3c2)n(C2CCOCC2)c(=O)n4C)cn1 [AZD0156] + CCN(CCO)CCCOc1ccc2c(Nc3cc(CC(=O)Nc4cccc(F)c4)[nH]n3)ncnc2c1 [AZD2811] (first compound max 1 µM, 7x7, partner max 1 µM) | 0.193 | 0.0885 | 0.493 | 0.211 | 0.824 | 0.206 | 0.135 | 0.322 | 0.244 | 0.693 | 0.153 | 0.206 | 0.251 | 0.114 | 0.12 | 0.224 | 0.0964 | 0.125 | 0.205
0.949 | C=CCn1c(=O)c2cnc(Nc3ccc(N4CCN(C)CC4)cc3)nc2n1-c1cccc(C(C)(C)O)n1 [AZD1775] + C1CN(CCC1(C(=O)N[C@@H](CCO)C2=CC=C(C=C2)Cl)N)C3=NC=NC4=C3C=CN4 [Capivasertib] (first compound max 3 µM, partner max 3 µM) | 0.733 | 0.723 | 0.775 | 0.789 |  | 0.636 | 0.482 | 0.91 | 0.909 | 0.857 | 0.837 | 0.624 | 0.793 | 0.628 | 0.359 | 0.795 | 0.584 | 0.555 | 0.399
0.155 | CN(CCO)CC[C@H](CSc1ccccc1)Nc1ccc(S(=O)(=O)NC(=O)c2ccc(N3CCC([C@@H](O)c4ccccc4-c4ccc(Cl)cc4)CC3)cc2)cc1S(=O)(=O)C(F)(F)F [AZD4320] + CN(C)CCCOc1ccc(-c2ccc3ncc4c(c3c2)n(C2CCOCC2)c(=O)n4C)cn1 [AZD0156] (first compound max 1 µM, 7x7, partner max 1 µM) |  | 0.115 | 0.731 | 0.369 | 0.936 | 0.371 | 0.342 | 0.224 | 0.146 | 1 | 0.0946 | 0.655 | 0.149 | 0.17 | 0.169 | 0.225 | 0.079 | 0.133 | 0.521
